Laboratory results from PMC5933747 (PLoS ONE, 2018).
pIC50: −log10 of the molar value. Read-outs that look alike come from different tables or passages of the source.

Target: human NaV1.5 (Homo sapiens, UniProt Q14524)
Assay: IonWorks Quattro (IWQ) electrophysiology, human NaV1.5
Assay type: cell-based
Settings: human
[1] = read-out: Ala mutant IWQ IC50 NaV1.5

Chain of human NaV1.5 (Q14524 whole entry): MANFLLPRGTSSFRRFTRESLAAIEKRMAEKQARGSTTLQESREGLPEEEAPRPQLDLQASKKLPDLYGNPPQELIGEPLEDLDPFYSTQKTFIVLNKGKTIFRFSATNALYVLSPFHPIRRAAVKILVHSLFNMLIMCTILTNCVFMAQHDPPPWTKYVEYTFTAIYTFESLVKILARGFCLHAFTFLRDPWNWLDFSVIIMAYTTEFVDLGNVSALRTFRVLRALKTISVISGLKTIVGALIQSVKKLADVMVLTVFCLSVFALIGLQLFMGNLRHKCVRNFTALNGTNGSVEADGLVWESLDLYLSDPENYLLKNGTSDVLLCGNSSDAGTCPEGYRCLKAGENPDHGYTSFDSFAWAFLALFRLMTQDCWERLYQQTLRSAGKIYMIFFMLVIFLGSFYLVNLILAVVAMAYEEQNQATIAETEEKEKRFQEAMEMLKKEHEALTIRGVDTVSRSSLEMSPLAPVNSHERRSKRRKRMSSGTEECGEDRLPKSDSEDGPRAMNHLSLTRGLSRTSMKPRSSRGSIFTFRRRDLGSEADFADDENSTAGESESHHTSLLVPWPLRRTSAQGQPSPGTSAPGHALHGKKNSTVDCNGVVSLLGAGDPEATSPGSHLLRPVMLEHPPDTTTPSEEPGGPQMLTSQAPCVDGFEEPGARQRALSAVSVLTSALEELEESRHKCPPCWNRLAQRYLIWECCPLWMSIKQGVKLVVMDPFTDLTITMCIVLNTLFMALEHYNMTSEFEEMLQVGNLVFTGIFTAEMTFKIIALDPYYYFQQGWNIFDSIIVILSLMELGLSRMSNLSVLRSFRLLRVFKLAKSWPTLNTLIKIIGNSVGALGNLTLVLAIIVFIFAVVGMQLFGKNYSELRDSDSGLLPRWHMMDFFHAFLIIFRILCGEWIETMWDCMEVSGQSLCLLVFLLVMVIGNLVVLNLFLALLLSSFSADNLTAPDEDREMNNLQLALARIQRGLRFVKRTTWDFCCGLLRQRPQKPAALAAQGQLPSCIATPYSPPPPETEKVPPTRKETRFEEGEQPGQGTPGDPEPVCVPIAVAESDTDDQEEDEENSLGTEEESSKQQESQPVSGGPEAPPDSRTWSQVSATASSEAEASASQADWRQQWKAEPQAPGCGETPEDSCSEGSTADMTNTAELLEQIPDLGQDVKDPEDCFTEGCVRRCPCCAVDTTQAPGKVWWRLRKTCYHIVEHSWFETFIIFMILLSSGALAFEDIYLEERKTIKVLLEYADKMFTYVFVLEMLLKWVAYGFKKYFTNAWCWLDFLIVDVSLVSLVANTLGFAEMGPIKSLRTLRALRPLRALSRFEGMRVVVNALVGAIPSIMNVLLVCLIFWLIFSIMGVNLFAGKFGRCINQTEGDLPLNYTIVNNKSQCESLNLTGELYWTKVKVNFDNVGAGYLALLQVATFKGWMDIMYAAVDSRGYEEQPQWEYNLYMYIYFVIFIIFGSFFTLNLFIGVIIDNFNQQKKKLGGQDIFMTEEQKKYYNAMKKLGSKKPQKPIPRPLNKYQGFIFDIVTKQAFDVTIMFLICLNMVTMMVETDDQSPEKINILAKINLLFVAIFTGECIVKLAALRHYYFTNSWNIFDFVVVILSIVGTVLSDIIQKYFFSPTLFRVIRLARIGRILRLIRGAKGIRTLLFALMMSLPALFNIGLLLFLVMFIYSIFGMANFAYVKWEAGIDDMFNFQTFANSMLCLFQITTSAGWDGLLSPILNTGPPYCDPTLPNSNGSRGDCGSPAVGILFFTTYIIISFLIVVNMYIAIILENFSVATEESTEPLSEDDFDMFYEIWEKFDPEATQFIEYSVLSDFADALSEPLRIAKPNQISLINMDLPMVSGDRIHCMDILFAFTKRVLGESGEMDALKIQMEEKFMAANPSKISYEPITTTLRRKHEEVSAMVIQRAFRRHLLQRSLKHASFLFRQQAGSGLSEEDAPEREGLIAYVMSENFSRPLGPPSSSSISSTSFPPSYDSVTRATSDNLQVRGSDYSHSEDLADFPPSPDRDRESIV

| Compound | pIC50 (read-out: Glu mutant IWQ IC50 NaV1.5) | pIC50 [1] |
| --- | --- | --- |
| CC[C@H](C)[C@H](NC(=O)[C@@H](NC(=O)[C@H](CCCCN)NC(=O)[C@H](CCCNC(=N)N)NC(=O)[C@@H]1CSSC[C@@H]2NC(=O)[C@H](C)NC(=O)[C@H](CCCNC(=N)N)NC(=O)[C@H](CCCCN)NC(=O)[C@H](CCC(=O)O)NC(=O)[C@H](CC(=O)O)NC(=O)[C@@H]3CSSC[C@H](NC(=O)[C@H](CCCNC(=N)N)NC(=O)[C@H](CC(C)C)NC(=O)CNC(=O)[C@H](CCC(=O)O)NC(=O)[C@H](CSSC[C@H](NC(=O)[C@@H](N)Cc4ccc(O)cc4)C(=O)N[C@@H](CCC(N)=O)C(=O)N[C@@H](CCCCN)C(=O)N[C@@H](Cc4c[nH]c5ccccc45)C(=O)N[C@@H](CCSC)C(=O)N[C@@H](Cc4c[nH]c5ccccc45)C(=O)N[C@@H]([C@@H](C)O)C(=O)N3)NC2=O)C(=O)N[C@@H](CCCCN)C(=O)N[C@@H](CC(C)C)C(=O)N[C@@H](Cc2c[nH]c3ccccc23)C(=O)N1)[C@@H](C)CC)C(N)=O [S11 Glu mutant] | < 5.30 |  |
| CC[C@H](C)[C@H](NC(=O)[C@H](C)NC(=O)[C@H](CCCCN)NC(=O)[C@H](CCCNC(=N)N)NC(=O)[C@@H]1CSSC[C@@H]2NC(=O)[C@H](C)NC(=O)[C@H](CCCNC(=N)N)NC(=O)[C@H](CCCCN)NC(=O)[C@H](CO)NC(=O)[C@H](CC(=O)O)NC(=O)[C@@H]3CSSC[C@H](NC(=O)[C@H](CCCNC(=N)N)NC(=O)[C@H](CC(C)C)NC(=O)CNC(=O)[C@H](CCC(=O)O)NC(=O)[C@H](CSSC[C@H](NC(=O)[C@@H](N)Cc4ccc(O)cc4)C(=O)N[C@@H](CCC(N)=O)C(=O)N[C@@H](CCCCN)C(=O)N[C@@H](Cc4c[nH]c5ccccc45)C(=O)N[C@@H](CCSC)C(=O)N[C@@H](Cc4c[nH]c5ccccc45)C(=O)N[C@@H]([C@@H](C)O)C(=O)N3)NC2=O)C(=O)N[C@@H](CCCCN)C(=O)N[C@@H](CC(C)C)C(=O)N[C@@H](Cc2c[nH]c3ccccc23)C(=O)N1)C(N)=O [I28 Ala mutant] |  | < 5.30 |
| CC[C@H](C)[C@H](NC(=O)[C@@H](NC(=O)[C@H](CCCCN)NC(=O)[C@H](CCCNC(=N)N)NC(=O)[C@@H]1CSSC[C@@H]2NC(=O)[C@H](C)NC(=O)[C@H](CCCNC(=N)N)NC(=O)[C@H](CCCCN)NC(=O)[C@H](CO)NC(=O)[C@H](CC(=O)O)NC(=O)[C@@H]3CSSC[C@H](NC(=O)[C@H](CCCNC(=N)N)NC(=O)[C@H](CC(C)C)NC(=O)CNC(=O)[C@H](CCC(=O)O)NC(=O)[C@H](CSSC[C@H](NC(=O)[C@@H](N)Cc4ccc(O)cc4)C(=O)N[C@@H](CCC(N)=O)C(=O)N[C@@H](CCCCN)C(=O)N[C@@H](Cc4c[nH]c5ccccc45)C(=O)N[C@@H](CCSC)C(=O)N[C@@H](Cc4c[nH]c5ccccc45)C(=O)N[C@@H]([C@@H](C)O)C(=O)N3)NC2=O)C(=O)N[C@@H](C)C(=O)N[C@@H](CC(C)C)C(=O)N[C@@H](Cc2c[nH]c3ccccc23)C(=O)N1)[C@@H](C)CC)C(N)=O [K22 Ala mutant] |  | < 5.30 |
| CC[C@H](C)[C@H](NC(=O)[C@@H](NC(=O)[C@H](CCCCN)NC(=O)[C@H](CCCNC(=N)N)NC(=O)[C@@H]1CSSC[C@@H]2NC(=O)[C@H](C)NC(=O)[C@H](CCCNC(=N)N)NC(=O)[C@H](CCCCN)NC(=O)[C@H](CO)NC(=O)[C@H](CC(=O)O)NC(=O)[C@@H]3CSSC[C@H](NC(=O)[C@H](CCCNC(=N)N)NC(=O)[C@H](CC(C)C)NC(=O)CNC(=O)[C@H](CCC(=O)O)NC(=O)[C@H](CSSC[C@H](NC(=O)[C@@H](N)Cc4ccc(O)cc4)C(=O)N[C@@H](CCC(N)=O)C(=O)N[C@@H](CCCCN)C(=O)N[C@@H](Cc4c[nH]c5ccccc45)C(=O)N[C@@H](CCSC)C(=O)N[C@@H](Cc4c[nH]c5ccccc45)C(=O)N[C@@H]([C@@H](C)O)C(=O)N3)NC2=O)C(=O)N[C@@H](CCCCN)C(=O)N[C@@H](C)C(=O)N[C@@H](Cc2c[nH]c3ccccc23)C(=O)N1)[C@@H](C)CC)C(N)=O [L23 Ala mutant] |  | < 5.30 |
